The values below come from PMC7503464 (Molecules, 2020).

What all share (assay): biochemical
The target of assay [1] is T1, dihydrofolate reductase (DHFR; wt-DHFR and midW mutants) (Escherichia coli, UniProt P0ABQ4, W133F/W22F/W47F/W74F).
T1 construct: gene folA
From the text:
(§1) isothermal titration calorimetry on dihydrofolate reductase (DHFR; wt-DHFR and midW mutants)

Assay [2] addresses T2, dihydrofolate reductase (DHFR; wt-DHFR and midW mutants) (Escherichia coli, UniProt P0ABQ4, W133F/W30F/W47F/W74F).
T2 construct: gene folA
Excerpt: as §1

Assay [3] addresses T3, dihydrofolate reductase (DHFR; wt-DHFR and midW mutants) (Escherichia coli, UniProt P0ABQ4, W133F/W22F/W30F/W74F).
T3 construct: gene folA
Excerpt: as §1

Assay [4] concerns the target T4, dihydrofolate reductase (DHFR; wt-DHFR and midW mutants) (Escherichia coli, UniProt P0ABQ4, W133F/W22F/W30F/W47F).
T4 construct: gene folA
Excerpt: as §1

Assay [5] concerns the target T5, dihydrofolate reductase (DHFR; wt-DHFR and midW mutants) (Escherichia coli, UniProt P0ABQ4, W22F/W30F/W47F/W74F).
T5 construct: gene folA
Excerpt: as §1

For the molecule `Nc1nc2ncc(CNc3ccc(C(=O)N[C@@H](CCC(=O)O)C(=O)O)cc3)nc2c(=O)[nH]1` [folate], the Kd in assay [1] worked out at 4.5 µM; in assay [2] it was 3.7 µM; in assay [3], 12 µM; in assay [4], 8.4 µM; in assay [5], 9.5 µM.
